The source of these data is US9249125B2, “Pyrazole derivatives as p38 MAP inhibitors” (RESPIVERT LIMITED, priority 2012, dated 2016).

In series [1] the target is p38 MAPKα (Homo sapiens (Human), UniProt Q16539). Nature of the series: p38 MAPKα enzyme inhibition (FRET, Z-LYTE). In kind it is biochemical. Here is the method:
(§1) The enzyme inhibitory activities of compounds disclosed herein are determined by FRET using synthetic peptides labelled with both donor and acceptor fluorophores (Z-LYTE, Invitrogen Ltd., Paisley, UK).
The inhibitory activities of test compounds against the p38 MAPKα isoform (MAPK14: Invitrogen), are evaluated indirectly by determining the level of activation/phosphorylation of the down-stream molecule, MAPKAP-K2. The p38 MAPKα protein (80 ng/mL, 2.5 μL) is mixed with the test compound (2.5 μL of either 4 μg/mL, 0.4 μg/mL, 0.04 μg/mL or 0.004 μg/mL) for 2 hr at RT. […] The mixture is incubated for 1 hr at RT. Development reagent (protease, 5 μL) is added for 1 hr prior to detection in a fluorescence microplate reader (Varioskan® Flash, ThermoFisher Scientific).
(§2) In all cases, the site-specific protease cleaves non-phosphorylated peptide only and eliminates the FRET signal. Phosphorylation levels of each reaction are calculated using the ratio of coumarin emission (donor) over fluorescein emission (acceptor), for which low ratios indicate high phosphorylation and high ratios indicate low phosphorylation levels.

Series [2] deals with cSrc (Homo sapiens (Human), UniProt P12931). Nature of the series: c-Src enzyme inhibition (FRET, Z-LYTE). It is filed as biochemical. Here is the method: as §1
Chain of cSrc (P12931 whole entry, looked up): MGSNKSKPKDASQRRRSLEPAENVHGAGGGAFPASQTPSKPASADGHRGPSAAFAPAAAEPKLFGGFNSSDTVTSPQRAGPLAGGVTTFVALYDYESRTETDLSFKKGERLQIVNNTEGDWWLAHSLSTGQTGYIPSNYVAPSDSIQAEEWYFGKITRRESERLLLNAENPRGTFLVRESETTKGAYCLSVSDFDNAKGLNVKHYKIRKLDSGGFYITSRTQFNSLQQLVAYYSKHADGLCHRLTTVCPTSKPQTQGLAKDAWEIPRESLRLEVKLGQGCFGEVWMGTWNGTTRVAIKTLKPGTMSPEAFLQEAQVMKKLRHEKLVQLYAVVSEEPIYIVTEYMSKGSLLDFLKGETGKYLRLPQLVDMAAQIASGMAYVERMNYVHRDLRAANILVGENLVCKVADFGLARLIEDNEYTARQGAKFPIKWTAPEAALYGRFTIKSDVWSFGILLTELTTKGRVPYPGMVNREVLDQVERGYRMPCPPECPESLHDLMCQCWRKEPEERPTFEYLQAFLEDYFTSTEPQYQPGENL
(§3) The relevant enzyme (3000 ng/mL or 2000 ng/mL respectively, 2.5 μL) is incubated with the test compound (either 4 μg/mL, 0.4 μg/mL, 0.04 μg/mL, or 0.004 μg/mL, 2.5 μL each) for 2 hr at RT. The FRET peptides (8 μM, 2.5 μL), and appropriate ATP solutions (2.5 μL, 800 μM for c-Src, and 60 μM ATP for Syk) are then added to the enzymes/compound mixtures and incubated for 1 hr. Development reagent (protease, 5 μL) is added for 1 hr prior to detection in a fluorescence microplate reader (Varioskan® Flash, ThermoFisher Scientific).
as §2

Series [3] has as its target Syk (Homo sapiens (Human), UniProt P43405). Nature of the series: Syk enzyme inhibition (FRET, Z-LYTE). In kind it is biochemical. Here is the method:
as §1, §3, §2

For series [4], the target named is GSK3α (Homo sapiens (Human), UniProt P49840). Nature of the series: GSK 3α enzyme inhibition (FRET, Z-LYTE). In kind it is biochemical. Here is the method:
as §1
The inhibitory activities of compounds of the invention against the GSK 3α enzyme isoform (Invitrogen), are evaluated by determining the level of activation/phosphorylation of the target peptide. The GSK3-α protein (500 ng/mL, 2.5 μL) is mixed with the test compound (2.5 μL at either 4 μg/mL, 0.4 μg/mL, 0.04 μg/mL, or 0.004 μg/mL) for 2 hr at RT. The FRET peptide (8 μM, 2.5 μL), which is a phosphorylation target for GSK3α, and ATP (40 μM, 2.5 μL) are then added to the enzyme/compound mixture and the resulting mixture incubated for 1 hr. Development reagent (protease, 5 μL) is added for 1 hr prior to detection in a fluorescence microplate reader (Varioskan® Flash, ThermoFisher Scientific).
as §2

The test system of series [5] is LPS-induced TNFα release in d-U937 cells. Nature of the series: LPS-induced TNFα release in d-U937 cells. In kind it is cell-based. The conditions noted are these: Homo sapiens, dU937, relative to 10 μg/mL BIRB796, read-out: LPS Induced Release of Cytokine in d-937 Cells TNFα REC50. Here is the method: (§4) U937 cells, a human monocytic cell line, are differentiated into macrophage-type cells by incubation with PMA (100 ng/mL) for 48 to 72 hr. Cells are pre-incubated with final concentrations of test compound for 2 hr and are then stimulated with LPS (0.1 μg/mL) (from E. coli: O111:B4, Sigma) for 4 hr. The supernatant is collected for determination of TNFα and IL-8 concentrations by sandwich ELISA (Duo-set, R&D systems). […] The relative 50% effective concentration (REC50) is determined from the resultant concentration-response curve. The inhibition of IL-8 production is calculated at each concentration of test compound by comparison with vehicle control. […] (b) LPS-Induced TNFα/IL-8 Release in PBMC Cells

Series [6] relates to LPS-induced IL-8 release in d-U937 cells. Nature of the series: LPS-induced IL-8 release in d-U937 cells. It is filed as cell-based. The conditions noted are these: Homo sapiens, dU937, read-out: LPS Induced Release of Cytokine in d-937 Cells IL-8 IC50. Here is the method:
as §4

Series [7] concerns Poly I:C-induced ICAM-1 expression in BEAS2B cells. Nature of the series: Poly I:C-induced ICAM-1 expression in BEAS2B cells. It is filed as cell-based. The conditions noted are these: Homo sapiens, BEAS-2B, read-out: Poly IC induced ICAM1 in BEAS2B IC50. Here is the method:
Poly I:C is used in these studies as a simple, RNA virus mimic. Poly I:C-Oligofectamine mixture (1 μg/mL Poly I:C, ±2% Oligofectamine, 25 uL) (Invivogen Ltd., San Diego, Calif., and Invitrogen, Carlsbad, Calif., respectively) is transfected into BEAS2B cells (human bronchial epithelial cells, ATCC). Cells are pre-incubated with final concentrations of test compounds for 2 hr and the level of ICAM1 expression on the cell surface is determined by cell-based ELISA. At a time point 18 hr after poly I:C transfection, cells are fixed with 4% formaldehyde in PBS (100 μL) and then endogenous peroxidase is quenched by the addition of washing buffer (100 μL, 0.05% Tween in PBS: PBS-Tween) containing 0.1% sodium azide and 1% hydrogen peroxide. Cells are washed with wash-buffer (3×200 μL). and after blocking the wells with 5% milk in PBS-Tween (100 μL) for 1 hr, the cells are incubated with anti-human ICAM-1 antibody (50 μL) (Cell Signaling Technology, Danvers, Mass.) in 1% BSA PBS overnight at 4° C.
The cells are washed with PBS-Tween (3×200 μL) and incubated with the secondary antibody (100 μL) (HRP-conjugated anti-rabbit IgG, Dako Ltd., Glostrup, Denmark). The cells are then incubated with of substrate (50 μL) for 2-20 min, followed by the addition of stop solution (50 μL, 1N H2SO4). The ICAM-1 signal is detected by reading and reading the absorbance at 450 nm against a reference wavelength of 655 nm using a spectrophotometer. The cells are then washed with PBS-Tween (3×200 μL) and total cell numbers in each well are determined by reading absorbance at 595 nm after Crystal Violet staining (50 μL of a 2% solution in PBS) and elution by 1% SDS solution (100 μL) in distilled water. The measured OD 450-655 readings are corrected for cell number by dividing with the OD595 reading in each well.

Series [8] concerns d-U937 cells. Nature of the series: Cell viability: MTT assay. In kind it is cell-based, human. Conditions: 1 μg/mL. Here is the method: Differentiated U937 cells are pre-incubated with each test compound (final concentration 1 μg/mL or 10 μg/mL in 200 μL media indicated below) under two protocols: the first for 4 hr in 5% FCS RPMI1640 media and the second in 10% FCS RPMI1640 media for 24 h. The supernatant is replaced with new media (200 μL) and MTT stock solution (10 μL, 5 mg/mL) is added to each well. After incubation for 1 hr the media are removed, DMSO (200 μL) is added to each well and the plates are shaken lightly for 1 hr prior to reading the absorbance at 550 nm. The percentage loss of cell viability is calculated for each well relative to vehicle (0.5% DMSO) treatment. Consequently an apparent increase in cell viability for drug treatment relative to vehicle is tabulated as a negative percentage.
On the technique in general: Tetrazolium dyes change colour on reduction, which living cells bring about.

Chain of GSK3α (P49840 whole entry): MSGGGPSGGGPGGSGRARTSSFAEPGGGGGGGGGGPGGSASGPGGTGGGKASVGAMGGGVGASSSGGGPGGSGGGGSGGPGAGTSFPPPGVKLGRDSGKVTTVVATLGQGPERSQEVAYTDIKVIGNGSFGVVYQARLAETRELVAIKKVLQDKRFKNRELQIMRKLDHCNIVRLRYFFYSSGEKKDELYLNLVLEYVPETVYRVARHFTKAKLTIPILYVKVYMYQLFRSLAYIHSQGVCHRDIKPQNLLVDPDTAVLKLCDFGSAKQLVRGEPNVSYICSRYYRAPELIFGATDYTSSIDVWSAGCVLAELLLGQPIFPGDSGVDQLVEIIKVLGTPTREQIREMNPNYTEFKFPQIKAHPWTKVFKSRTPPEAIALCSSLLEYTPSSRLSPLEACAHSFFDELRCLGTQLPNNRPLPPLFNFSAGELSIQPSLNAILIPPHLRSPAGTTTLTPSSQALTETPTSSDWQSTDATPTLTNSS
Chain of p38 MAPKα (Q16539 whole entry): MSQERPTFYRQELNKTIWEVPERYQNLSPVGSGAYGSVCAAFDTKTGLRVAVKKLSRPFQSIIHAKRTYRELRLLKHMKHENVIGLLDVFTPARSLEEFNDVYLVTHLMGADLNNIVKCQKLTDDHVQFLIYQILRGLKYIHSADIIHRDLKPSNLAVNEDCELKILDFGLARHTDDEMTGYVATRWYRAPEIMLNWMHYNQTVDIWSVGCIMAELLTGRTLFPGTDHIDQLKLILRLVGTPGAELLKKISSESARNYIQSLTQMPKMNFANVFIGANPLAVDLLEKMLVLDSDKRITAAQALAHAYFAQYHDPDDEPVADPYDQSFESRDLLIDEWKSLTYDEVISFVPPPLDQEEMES

As usually defined, the IC50 is the concentration needed to halve the response being measured. For the compound `CC(C)(C)c1cc(NC(=O)Nc2ccc(Oc3ccnc(Nc4ccc5c(c4)CCC5)n3)c3ccccc23)n(-c2ccc(OCCN3CCOCC3)cc2)n1` [Example 59, 1-(3-(tert-butyl)-1-(4-(2-morpholinoethoxy)phenyl)-1H-pyrazol-5-yl)-3-(4-((2-((2,3-dihydro-1H-inden-5-yl)amino)pyrimidin-4-yl)oxy)naphthalen-1-yl)urea], the IC50 in series [1] is 98 nM; in series [2], 23 nM; in series [3] it was 28 nM; in series [4] it was above 9230 nM; in series [6] it was 16.8 nM; in series [7], 0.1 nM. The EC50 in series [5] worked out at 12.6 nM. Further, the “MTT Assay Cell viability at time point in d-U937 cells 4 h” value in series [8] was “−ve (−ve and +ve indicate that the value is below and above respectively, the no significant effect threshold, defined as 30% inhibition at 1 μg/mL at the time point indicated.)”. In addition, the “MTT Assay Cell viability at time point in d-U937 cells 24 h” value in series [8] is “−ve (−ve and +ve indicate that the value is below and above respectively, the no significant effect threshold, defined as 30% inhibition at 1 μg/mL at the time point indicated.)”.
Consider `COc1ccc(-n2nc(C(C)(C)C)cc2NC(=O)Nc2ccc(Oc3ccnc(Nc4ccc5[nH]ccc5c4)n3)c3ccccc23)cn1` [Example 82, 1-(4-((2-((1H-indol-5-yl)amino)pyrimidin-4-yl)oxy)naphthalen-1-yl)-3-(3-(tert-butyl)-1-(6-methoxypyridin-3-yl)-1H-pyrazol-5-yl)urea], for which the IC50 in series [1] is 63 nM; in series [2] it was 10 nM; in series [3], 26 nM; in series [4], above 1560 nM; in series [6] it was 2.4 nM; in series [7], 2.7 nM. The EC50 in series [5] amounted to 1.8 nM. For the same compound, the “MTT Assay Cell viability at time point in d-U937 cells 4 h” value in series [8] was “−ve (−ve and +ve indicate that the value is below and above respectively, the no significant effect threshold, defined as 30% inhibition at 1 μg/mL at the time point indicated.)”. In addition, the “MTT Assay Cell viability at time point in d-U937 cells 24 h” value in series [8] is “−ve (−ve and +ve indicate that the value is below and above respectively, the no significant effect threshold, defined as 30% inhibition at 1 μg/mL at the time point indicated.)”.
As for `Cc1ccc(-n2nc(C(C)(C)C)cc2NC(=O)Nc2ccc(Oc3ccnc(Nc4cnc5[nH]ccc5c4)n3)c3ccccc23)cc1` [Example 32, 1-(4-((2-((1H-pyrrolo[2,3-b]pyridin-5-yl)amino)pyrimidin-4-yl)oxy)naphthalen-1-yl)-3-(3-(tert-butyl)-1-(p-tolyl)-1H-pyrazol-5-yl)urea], the IC50 in series [1] is 79 nM; in series [4] it was above 1600 nM; in series [6] it was 0.6 nM. The EC50 in series [5] is 1.7 nM. Also, the “MTT Assay Cell viability at time point in d-U937 cells 4 h” value in series [8] is “−ve (−ve and +ve indicate that the value is below and above respectively, the no significant effect threshold, defined as 30% inhibition at 1 μg/mL at the time point indicated.)”. Also, in series [8], the “MTT Assay Cell viability at time point in d-U937 cells 24 h” value is “−ve (−ve and +ve indicate that the value is below and above respectively, the no significant effect threshold, defined as 30% inhibition at 1 μg/mL at the time point indicated.)”.
With `Cc1ccc(-n2nc(C(C)(C)C)cc2NC(=O)Nc2ccc(Oc3ccnc(Nc4cccc5[nH]ncc45)n3)c3ccccc23)cc1` [Example 21], the IC50 is 182 nM in series [3], above 16000 nM in series [4], 5 nM in series [6] and 3 nM in series [7]. Besides, in series [5], the EC50 is 1.7 nM. Further, the “MTT Assay Cell viability at time point in d-U937 cells 4 h” value in series [8] was “−ve (−ve and +ve indicate that the value is below and above respectively, the no significant effect threshold, defined as 30% inhibition at 1 μg/mL at the time point indicated.)”. Besides, the “MTT Assay Cell viability at time point in d-U937 cells 24 h” value in series [8] is “−ve (−ve and +ve indicate that the value is below and above respectively, the no significant effect threshold, defined as 30% inhibition at 1 μg/mL at the time point indicated.)”.
Turning to `Cc1cc(Nc2nccc(Oc3ccc(NC(=O)Nc4cc(C(C)(C)C)nn4-c4ccc(OCCN5CCOCC5)nc4)c4ccccc34)n2)cc2cn[nH]c12` [Example 91, 1-(3-(tert-butyl)-1-(6-(2-morpholinoethoxy)pyridin-3-yl)-1H-pyrazol-5-yl)-3-(4-((2-((7-methyl-1H-indazol-5-yl)amino)pyrimidin-4-yl)oxy)naphthalen-1-yl)urea], the IC50 in series [1] is 20 nM; in series [2] it was 1 nM; in series [3] it was 1 nM; in series [4], 1210 nM; in series [6], 1.6 nM; in series [7], 1.9 nM. In addition, the “MTT Assay Cell viability at time point in d-U937 cells 4 h” value in series [8] was “−ve (−ve and +ve indicate that the value is below and above respectively, the no significant effect threshold, defined as 30% inhibition at 1 μg/mL at the time point indicated.)”. Besides, the “MTT Assay Cell viability at time point in d-U937 cells 24 h” value in series [8] was “−ve (−ve and +ve indicate that the value is below and above respectively, the no significant effect threshold, defined as 30% inhibition at 1 μg/mL at the time point indicated.)”.
